# ChEMBL document CHEMBL1201862, “PubChem BioAssay data set” (2004)
# Activity calls are given as the source filed them.
# Tests used:
# [1] = test system: Streptococcus sp. 'group A'; experiment: growth inhibition of control SK(-) GAS strain, dose response, counter-screen for streptokinase expression inhibitor project, luminescence, kanamycin, BacTiterGlo, confirmation (AID 1900); type: functional, organism-based
# Streptokinase A = target: T1, Streptokinase A (Streptococcus pyogenes serotype M1, UniProt P10520); experiment: S. pyogenes streptokinase expression inhibitors, potency, dose response, plasminogen activation absorbance, OD405 (AID 1914); type: functional, Streptococcus pyogenes M1 GAS;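 also: secreted streptokinase activity via plasminogen activation per viability signal from cell pellet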
# T1 sequence (P10520 whole entry): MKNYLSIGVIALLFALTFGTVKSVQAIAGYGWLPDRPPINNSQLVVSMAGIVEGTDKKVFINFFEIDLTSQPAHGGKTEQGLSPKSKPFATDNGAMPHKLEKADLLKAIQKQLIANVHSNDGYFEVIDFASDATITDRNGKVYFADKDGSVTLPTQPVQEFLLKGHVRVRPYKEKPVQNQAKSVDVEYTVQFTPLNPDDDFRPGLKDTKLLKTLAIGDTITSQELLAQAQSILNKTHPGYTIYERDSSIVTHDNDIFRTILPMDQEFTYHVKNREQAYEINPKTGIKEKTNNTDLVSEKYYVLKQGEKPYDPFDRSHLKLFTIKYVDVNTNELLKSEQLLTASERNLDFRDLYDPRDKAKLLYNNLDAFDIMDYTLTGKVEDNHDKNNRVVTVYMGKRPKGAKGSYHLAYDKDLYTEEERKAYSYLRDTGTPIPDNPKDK
# Streptococcus = experiment: Group A Streptococcus viability loss, dose response, counter-screen for streptokinase expression inhibitor project, luminescence, BacTiterGlo (AID 1915); type: functional, organism-based;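 also: potency for reduction of bacterial viability or growth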
# Exodeoxyribonuclease V = target: T2, Exodeoxyribonuclease V (Escherichia coli (strain K12), UniProt P04993+P07648+P08394); experiment: E. coli RecBCD inhibitors, dose response, counter-screen for AddAB inhibitor project, absorbance, V66 E. coli, mutant T4 phage (AID 492957); type: functional, cell-based, Escherichia coli str. K-12 substr. MG1655
# T2 sequence (P04993 whole entry): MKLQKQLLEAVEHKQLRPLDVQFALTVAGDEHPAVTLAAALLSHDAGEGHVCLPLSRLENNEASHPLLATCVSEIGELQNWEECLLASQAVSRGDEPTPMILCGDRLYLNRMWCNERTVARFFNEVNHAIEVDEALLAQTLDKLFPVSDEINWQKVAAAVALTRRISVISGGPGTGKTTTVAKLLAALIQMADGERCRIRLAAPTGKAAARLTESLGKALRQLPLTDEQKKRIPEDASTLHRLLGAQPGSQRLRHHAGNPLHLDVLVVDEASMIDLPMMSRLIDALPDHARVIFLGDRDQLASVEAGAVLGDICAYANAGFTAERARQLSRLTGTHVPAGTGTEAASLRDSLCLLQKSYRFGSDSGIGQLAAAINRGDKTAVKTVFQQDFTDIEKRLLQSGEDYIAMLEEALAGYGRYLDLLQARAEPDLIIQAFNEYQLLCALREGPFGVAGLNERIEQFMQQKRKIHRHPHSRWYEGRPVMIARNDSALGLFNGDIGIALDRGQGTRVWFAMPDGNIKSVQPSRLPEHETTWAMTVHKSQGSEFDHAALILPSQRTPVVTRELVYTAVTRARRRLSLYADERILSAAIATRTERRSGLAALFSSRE
# T2 sequence (P07648 whole entry): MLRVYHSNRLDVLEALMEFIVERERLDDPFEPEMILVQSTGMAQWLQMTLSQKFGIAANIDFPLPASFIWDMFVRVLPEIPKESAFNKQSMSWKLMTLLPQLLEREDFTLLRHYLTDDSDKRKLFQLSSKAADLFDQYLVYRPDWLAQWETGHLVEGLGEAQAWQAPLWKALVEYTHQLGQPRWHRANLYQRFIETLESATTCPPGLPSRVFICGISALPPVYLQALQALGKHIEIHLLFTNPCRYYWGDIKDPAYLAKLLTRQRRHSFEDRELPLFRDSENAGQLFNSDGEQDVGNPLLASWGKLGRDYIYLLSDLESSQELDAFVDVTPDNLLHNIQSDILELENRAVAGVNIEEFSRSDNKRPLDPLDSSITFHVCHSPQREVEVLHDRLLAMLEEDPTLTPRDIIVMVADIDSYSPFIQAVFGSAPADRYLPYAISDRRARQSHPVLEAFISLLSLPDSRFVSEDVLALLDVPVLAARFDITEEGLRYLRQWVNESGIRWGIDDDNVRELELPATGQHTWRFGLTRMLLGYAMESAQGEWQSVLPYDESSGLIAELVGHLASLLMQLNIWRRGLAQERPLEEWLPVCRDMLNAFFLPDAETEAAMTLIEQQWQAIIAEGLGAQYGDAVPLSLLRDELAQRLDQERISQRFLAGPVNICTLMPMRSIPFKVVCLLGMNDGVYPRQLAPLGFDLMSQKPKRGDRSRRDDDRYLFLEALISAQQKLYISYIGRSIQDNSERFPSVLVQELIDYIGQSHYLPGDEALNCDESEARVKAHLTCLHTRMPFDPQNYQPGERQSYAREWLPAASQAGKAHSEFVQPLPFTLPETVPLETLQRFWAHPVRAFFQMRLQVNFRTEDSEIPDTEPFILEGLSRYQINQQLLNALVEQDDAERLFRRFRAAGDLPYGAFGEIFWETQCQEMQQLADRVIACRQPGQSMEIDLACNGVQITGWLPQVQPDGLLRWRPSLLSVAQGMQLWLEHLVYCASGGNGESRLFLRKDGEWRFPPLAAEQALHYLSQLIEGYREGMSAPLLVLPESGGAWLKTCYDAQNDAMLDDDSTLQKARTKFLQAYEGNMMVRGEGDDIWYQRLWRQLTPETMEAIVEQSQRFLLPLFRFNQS
# T2 sequence (P08394 whole entry): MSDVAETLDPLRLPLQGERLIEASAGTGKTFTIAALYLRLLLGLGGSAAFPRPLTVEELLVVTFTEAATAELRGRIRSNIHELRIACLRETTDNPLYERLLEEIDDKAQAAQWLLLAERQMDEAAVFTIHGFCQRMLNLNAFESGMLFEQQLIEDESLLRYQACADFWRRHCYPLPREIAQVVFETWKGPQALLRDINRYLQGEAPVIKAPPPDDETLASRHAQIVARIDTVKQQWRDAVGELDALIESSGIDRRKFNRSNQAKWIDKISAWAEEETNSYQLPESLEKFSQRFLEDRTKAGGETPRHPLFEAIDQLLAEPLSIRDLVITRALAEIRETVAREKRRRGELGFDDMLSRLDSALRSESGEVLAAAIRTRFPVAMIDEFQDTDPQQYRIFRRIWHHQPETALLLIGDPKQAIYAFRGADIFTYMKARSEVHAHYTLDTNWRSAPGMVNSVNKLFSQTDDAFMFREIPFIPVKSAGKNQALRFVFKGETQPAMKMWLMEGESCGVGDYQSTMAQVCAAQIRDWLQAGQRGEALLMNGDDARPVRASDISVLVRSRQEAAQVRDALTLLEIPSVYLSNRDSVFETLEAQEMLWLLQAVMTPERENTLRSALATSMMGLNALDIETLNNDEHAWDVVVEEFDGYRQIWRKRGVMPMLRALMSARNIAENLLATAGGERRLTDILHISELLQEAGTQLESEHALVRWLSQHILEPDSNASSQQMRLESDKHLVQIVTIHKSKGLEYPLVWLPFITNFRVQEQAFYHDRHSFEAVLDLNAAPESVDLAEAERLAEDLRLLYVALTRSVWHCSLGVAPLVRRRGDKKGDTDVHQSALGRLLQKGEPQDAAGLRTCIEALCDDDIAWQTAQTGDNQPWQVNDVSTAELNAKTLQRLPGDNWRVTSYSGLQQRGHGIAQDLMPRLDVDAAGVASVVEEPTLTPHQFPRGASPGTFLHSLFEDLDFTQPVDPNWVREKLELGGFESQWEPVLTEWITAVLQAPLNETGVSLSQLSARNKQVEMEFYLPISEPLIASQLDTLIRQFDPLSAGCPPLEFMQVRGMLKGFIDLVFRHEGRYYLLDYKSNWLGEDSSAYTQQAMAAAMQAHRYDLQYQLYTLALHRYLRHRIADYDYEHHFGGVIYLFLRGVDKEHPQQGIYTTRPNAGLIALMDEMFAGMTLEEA
# [2] = Counterscreen for AddAB inhibitors: absorbance-based bacterial cell-based high throughput dose response assay for inhibitors of bacterial viability. [Related pubchem assays (depositor defined):AID435030, AID449728, AID449731, AID488942, AID488955, AID488956]; type: functional
# [3] = HeLa cell cytotoxicity, dose response, cytotoxicity control for MgcRacGAP inhibitor project (AID 624300); type: functional
# [4] = NIH-3T3 fibroblast cytotoxicity, dose response, cytotoxicity control, cell-based, fluorescence, Alamar Blue, secondary assay (AID 2327); type: functional;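 also: NIH-3T3 mouse fibroblasts cultured with fluconazole at 8 µg/mL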
# [5] = inhibitors of firefly luciferase expression or activity, dose response, H4 neuroglioma cells, luminescence (AID 1990); type: functional, cell-based
# [6] = Luminescence Cell-Based Dose Response HTS to Identify Inhibitors of 5'UTR Stem-Loop Driven Prion Protein mRNA Translation in H4 Neuroglioblastoma Cells. [Related pubchem assays: 1827 (Project Summary), 1813 (Primary HTS)]; type: functional
# [7] = inhibitors of SNCA 5'UTR-driven reporter translation, confirmation, H4 neuroglioma cells, luminescence (AID 1988); type: functional, cell-based
# [8] = C. albicans growth with fluconazole, confirmation, fluorescence, retest (AID 2467); type: functional, cell-based
# [9] = microbe, parasite or virus in culture; type: functional; conditions: Mycobacterium tuberculosis
# [10] = THP-1 cell cytotoxicity, dose response, cytotoxicity control for non-replicating M. tuberculosis project (AID 489025); type: functional
# [11] = HepG2 cell cytotoxicity, dose response, cytotoxicity control for non-replicating M. tuberculosis project (AID 489018); type: functional; conditions: Mycobacterium tuberculosis
# [12] = Vero E6 cell cytotoxicity, dose response, cytotoxicity control for non-replicating M. tuberculosis project, secondary assay (AID 492998); type: functional, VeroE6; conditions: Vero C1008
# cells = type: functional
# INS1 = experiment: beta cell apoptosis inhibitors, cytokine rescue, dose response, luminescence, retest (AID 449756); type: functional, cell-based; conditions: Rattus norvegicus;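 also: cell death triggered by IL-1 beta plus TNF-alpha plus IFN-gamma mixture; protective hits raise ATP signal compared with cytokine alone wells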
# [13] = target: T3, DNA repair protein RAD52 homolog (Homo sapiens, UniProt P43351); type: functional, biochemical
# T3 sequence (P43351 whole entry): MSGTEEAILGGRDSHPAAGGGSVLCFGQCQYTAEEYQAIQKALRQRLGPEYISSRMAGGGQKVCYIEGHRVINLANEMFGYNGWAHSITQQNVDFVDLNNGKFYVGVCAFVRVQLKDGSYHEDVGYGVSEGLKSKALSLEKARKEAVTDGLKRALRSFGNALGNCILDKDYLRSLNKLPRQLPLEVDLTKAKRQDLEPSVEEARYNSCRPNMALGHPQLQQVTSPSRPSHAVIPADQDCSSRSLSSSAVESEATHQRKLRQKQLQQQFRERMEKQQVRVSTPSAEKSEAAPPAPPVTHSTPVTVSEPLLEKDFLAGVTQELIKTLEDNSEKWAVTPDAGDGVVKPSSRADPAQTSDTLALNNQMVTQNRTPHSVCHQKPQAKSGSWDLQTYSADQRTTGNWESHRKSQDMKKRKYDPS
# Paired box protein Pax-8 = Paired box protein Pax-8 (Homo sapiens, UniProt Q06710); experiment: inhibitors of PAX8-driven TPO luciferase reporter, dose response, RMG-I cells, cherry-pick (AID 687027); type: functional, cell-based;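 also: luciferase reporter driven by Pax8 target thyroperoxidase promoter measured by SteadyGlo luminescence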
# [14] = Luminescence Cell-Based Dose Retest to Confirm Inhibitors of Cancer Stem Cells. [Related pubchem assays (depositor defined):AID2717, AID2721]; type: functional; conditions: Homo sapiens
# [15] = cytotoxicity in HMLE control line with eGFP shRNA, dose response, counter-screen for HMLE_sh_ECad selective toxicity project, cell-based, HMLE_sh_eGFP, luminescence (AID 463074); type: functional, Homo sapiens;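 also: HMLE human mammary epithelial cells expressing control shRNA against eGFP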
# Chain of Paired box protein Pax-8 (Q06710 whole entry): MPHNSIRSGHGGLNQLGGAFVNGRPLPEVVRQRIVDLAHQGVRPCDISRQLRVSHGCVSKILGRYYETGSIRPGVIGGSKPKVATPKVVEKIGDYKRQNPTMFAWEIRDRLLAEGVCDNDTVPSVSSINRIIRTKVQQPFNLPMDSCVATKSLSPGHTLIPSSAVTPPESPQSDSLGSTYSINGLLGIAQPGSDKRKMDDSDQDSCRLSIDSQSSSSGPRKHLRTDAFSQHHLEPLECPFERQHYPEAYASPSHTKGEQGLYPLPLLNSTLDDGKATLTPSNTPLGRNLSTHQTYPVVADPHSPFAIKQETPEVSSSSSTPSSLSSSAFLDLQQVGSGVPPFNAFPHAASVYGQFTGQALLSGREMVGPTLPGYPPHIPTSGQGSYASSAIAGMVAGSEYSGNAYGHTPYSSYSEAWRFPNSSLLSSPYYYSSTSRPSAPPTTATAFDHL
smiles,measurement,setting,value
O=C(NC(NC(=S)Nc1ccc(Cl)c(Cl)c1)C(Cl)(Cl)Cl)c1ccco1 (centres undefined),EC50,[1],4.32 µM (active)
same,EC50,Streptokinase A,10.9 µM (active)
same,EC50,Streptococcus,10.9 µM (active)
same,IC50,Exodeoxyribonuclease V,> 119 µM (inactive)
same,IC50,[2],> 119 µM (inactive)
same,CC50,[3],57.7 µM (active)
Cc1cc(C)n(-c2nc(NCCN(C)C)c3c4c(sc3n2)CCCC4)n1,EC50,[4],8.65 µM (inconclusive)
same,EC50,[5],6.98 µM (active)
same,EC50,[6],8.38 µM (active)
same,EC50,[7],8.07 µM (active)
same,EC50,[8],11.3 µM (active)
same,CC50,[9],10.3 µM (active)
same,CC50,[10],12.7 µM (active)
same,CC50,[11],9.27 µM (active)
same,CC50,[12],5.33 µM (active)
same,IC50,cells,13.8 µM (active)
same,AC50,INS1,8.03 µM (active)
same,AC50,[13],7 µM (active)
same,AC50,Paired box protein Pax-8,22.9 µM (active)
COc1cccc(-c2nnc(NC(=O)c3ccc4ncsc4c3)o2)c1,EC50,[4],> 150 µM (inconclusive)
same,EC50,[8],1.9 µM (active)
same,CC50,[10],23.5 µM (active)
same,CC50,[11],> 20 µM (active)
same,CC50,[12],13 µM (active)
same,IC50,cells,11.7 µM (active)
O=C(COC(=O)CCc1c[nH]c2ccccc12)Nc1ccc([N+](=O)[O-])cc1,CC50,[11],> 20 µM (active)
same,IC50,cells,9.62 µM (active)
Cc1ccc(N/N=C(\Cc2nc3ccccc3[nH]2)c2ccccc2)cc1,AC50,[14],0.47 µM (active)
same,AC50,[15],0.385 µM (inconclusive)
Cc1cc(N/N=C/c2ccc([N+](=O)[O-])o2)nc2ccccc12,IC50,Exodeoxyribonuclease V,> 118 µM (inactive)
same,IC50,[2],> 118 µM (inactive)
C=CCc1cccc(/C=N/NC(=O)CCC(=O)Nc2ccc(F)cc2)c1O,IC50,Exodeoxyribonuclease V,> 119 µM (inactive)
same,IC50,[2],> 119 µM (inactive)
same,AC50,INS1,3.18 µM (active)
